How the values were obtained:
[1] = Compound 1 adsorption (loss) to various silicone tubings with polysorbate 80; type: physicochemical
Description: Solutions were prepared containing 7% v/v ethanol in 10 mM sodium phosphate buffer at pH 7.4, 75 μg of Compound 1 and selected v/v % amounts of polysorbate 80. Various silicone tubing types were tested as follows: [table] The percentage loss of Compound 1 onto the tubing was calculated in each experiment. Fluorine was assayed before and after the passage through tubing, and the results were as follows: […]

[2] = Loss of Compound 1 to dispensing kit components (syringe, silicone tube, hard tube, filter), evaluated by HPLC; type: physicochemical; conditions: 7% v/v ethanol
Description: Solutions were prepared containing 7% v/v ethanol in 0.01 M sodium phosphate buffer at pH 7.4, 75 μg of Compound 1 and either (i) 12% v/v propylene glycol (PG) or (ii) 10% v/v polyethylene glycol 400 (PEG 400). Percentage loss of Compound 1 to various components of a dispensing kit was evaluated by High Performance Liquid Chromatography (HPLC) in the following experiments: […]

Compound: CNc1ccc(-c2nc3ccc(O)cc3s2)cc1[18F] [Compound 1, 2-[3-[^18F]fluoro-4-(methylamino)phenyl]-6-hydroxy-benzothiazole]
- % Loss Compound 1 ([1]; Experiment 1: 0.8 × 4.0 Pt-cured silicone tubing, polysorbate 80 0 v/v %, 2 min 0 sec, 350 μl): 63%
- % Loss Compound 1 ([1]; Experiment 2: 1.6 × 4.8 Pt-cured silicone tubing, polysorbate 80 0 v/v %, 2 min 7 sec, 1400 μl): 41%
- % Loss Compound 1 ([1]; Experiment 3: 1.6 × 4.8 Perox-cured silicone tubing, polysorbate 80 0 v/v %, 2 min 6 sec, 1400 μl): 45%
- % Loss Compound 1 ([1]; Experiment 4: 0.8 × 4.0 Pt-cured silicone tubing, polysorbate 80 1 v/v %, 2 min 3 sec, 350 μl): 0%
- % Loss Compound 1 ([1]; Experiment 5: 1.6 × 4.8 Pt-cured silicone tubing, polysorbate 80 1 v/v %, 2 min 10 sec, 1400 μl): 1%
- % Loss Compound 1 ([1]; Experiment 6: 1.6 × 4.8 Perox-cured silicone tubing, polysorbate 80 1 v/v %, 2 min 4 sec, 1400 μl): 0%
- % Loss Compound 1 ([1]; Experiment 7: 0.8 × 4.0 Pt-cured silicone tubing, polysorbate 80 5 v/v %, 2 min 2 sec, 350 μl): 0%
- % Loss Compound 1 ([1]; Experiment 8: 1.6 × 4.8 Pt-cured silicone tubing, polysorbate 80 5 v/v %, 2 min 4 sec, 1400 μl): 1%
- % Loss Compound 1 ([1]; Experiment 9: 1.6 × 4.8 Perox-cured silicone tubing, polysorbate 80 5 v/v %, 2 min 1 sec, 1400 μl): 1%
- % loss ([2]; 10% v/v PEG 400, filter, 11 sec, 9.5 ml, 0.01 M phosphate pH 7.4): 51%
- % loss ([2]; 10% v/v PEG 400, hard tube, 5 min 4 sec, ~2-2.5 ml, 0.01 M phosphate pH 7.4): 4%
- % loss ([2]; 10% v/v PEG 400, silicone tube, 2 min 2 sec, ~1-1.5 ml, 0.01 M phosphate pH 7.4): 8%
- % loss ([2]; 10% v/v PEG 400, syringe, 1 min 1 sec, 9.5 ml, 0.01 M phosphate pH 7.4): 1%
- % loss ([2]; 12% v/v PG, filter, 10 sec, 9.5 ml, 0.01 M phosphate pH 7.4): 87%
- % loss ([2]; 12% v/v PG, hard tube, 5 min 2 sec, ~2-2.5 ml, 0.01 M phosphate pH 7.4): 3%
- % loss ([2]; 12% v/v PG, silicone tube, 2 min 23 sec, ~1-1.5 ml, 0.01 M phosphate pH 7.4): 30%
- % loss ([2]; 12% v/v PG, syringe, 1 min 4 sec, 9.5 ml, 0.01 M phosphate pH 7.4, 75 μg Compound 1): 0%

— patent publication US8916131B2, “Radiopharmaceutical composition” (GE Healthcare Limited, priority 2007, dated 2014)
